“And” between values parts separate entries of the source, which are not always exact repeats. Equal entries are not always repeated.
Key:
[1] = biological target: E. coli IP kinase (ychB, SEQ ID NO:6), partially purified (Escherichia coli, UniProt P62615); experiment: Kinase assay, partially purified recombinant E. coli IP kinase; format: biochemical; conditions: for Cofactor / phosphate donor requirement of kinase activity: IP as substrate, partially purified E. coli kinase; for Phosphorylating activity with substrate, in words, partially purified E. coli kinase: partially purified protein
[2] = biological target: T1, recombinant peppermint kinase (isopentenyl monophosphate kinase, SEQ ID NO:2) (Mentha piperita, UniProt P56848); experiment: Kinase assay, recombinant peppermint IP kinase, crude extracts of transformed E. coli; format: biochemical, peppermint (Mentha x piperita); conditions: crude extract, standard assay conditions
T1 sequence (P56848 98-405): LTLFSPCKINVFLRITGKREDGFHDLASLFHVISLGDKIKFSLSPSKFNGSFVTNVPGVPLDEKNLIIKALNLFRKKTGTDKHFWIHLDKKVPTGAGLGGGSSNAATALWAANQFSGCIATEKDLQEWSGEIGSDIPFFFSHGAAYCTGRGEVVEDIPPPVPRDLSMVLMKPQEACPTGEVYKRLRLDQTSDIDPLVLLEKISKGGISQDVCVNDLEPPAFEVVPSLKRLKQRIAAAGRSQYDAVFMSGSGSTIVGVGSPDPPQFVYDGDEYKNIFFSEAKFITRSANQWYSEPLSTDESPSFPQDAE

[3] = tested on: E. coli background (repressed, 0.02% glucose); experiment: Kinase assay, E. coli background (repressed) controls; format: biochemical; conditions: crude extract, transgene repressed with 0.02% glucose; rates are minimums
[4] = biological target: E. coli IP kinase (ychB, SEQ ID NO:6) (Escherichia coli, UniProt P62615); experiment: Kinase assay, recombinant E. coli IP kinase (induced), crude extracts; format: biochemical; conditions: crude extract, induced with 0.02% arabinose; rates are minimums
[5] = tested on: isolated peppermint oil gland secretory cells; experiment: Feeding studies with isolated peppermint oil gland secretory cells, incorporation into terpenoids; format: cell-based, peppermint (Mentha x piperita L. cv. Black Mitcham); conditions: radiolabeled precursor, 23° C., 2 h; average of two experiments; includes geraniol and farnesol
Procedure: Isolation of and Feeding Studies with Peppermint Oil Gland Secretory Cells: Leaves (15-20 g; <10 mm in length) were excised from peppermint plants (Mentha x piperita L. cv. Black Mitcham) and the oil gland secretory cells were isolated by the glass bead abrasion method (McCaskill, D. & Croteau, R., Planta, 197:49-56 [1995]). Following isolation, the secretory cells were washed with 25 mM Tris/HCl buffer (pH 7.3) containing 200 mM sorbitol, 10 mM sucrose, 5 mM MgCl2, 10 mM KCl, 1 mM ethyleneglycol bis(β-aminoethyl ether), 8.5 mM Na2 HPO4, and 0.1 mM Na4 P2 O7, and then suspended in the same buffer supplemented with 2 mM ATP, 0.1 mM NADPH, 0.1 mM NAD^+, 5 mM phosphoenol pyruvate, and 5 mM glucose-6-phosphate. Cell density was determined using a hemocytometer and was adjusted to 1-2×10^5 cellular disks (each containing eight secretory cells) per milliliter suspension. Aliquots (1-1.5 ml) were transferred to 15 ml screw-cap glass vials, and the suspended cells were aerated and incubated at 23° C. for 2 h. At the end of the incubation period, the suspension was extracted three times with 1 ml diethyl ether. The combined organic extract was washed with 1 ml of 1 M Na2 CO3 and dried over Na2 SO4. An aliquot was removed for liquid scintillation counting and, to the remainder, authentic standards (10-50 μg each) of isopentenol, dimethylallyl alcohol, geraniol, farnesol, limonene, menthone, menthol, pulegone, humulene, and caryophyllene were added. These extracts were then slowly concentrated on ice under a gentle stream of N2 to ~200 μl, and were then transferred to conical glass vials and further concentrated to 5-10 μl at 20° C. in preparation for chromatographic analysis.
Radio-GLC Analysis of Peppermint Isoprenoids: Radio-GC was performed according to a published method (Croteau, R. & Satterwhite, D. M. J. Chromatog. 500:349-354 [1990]) with several modifications; 0.25 mm i.d.×30 m AT 1000 fused silica column with 0.2 μm film thickness (Alltech); helium carrier gas at 3-6 ml/min^-1; temperature program from 70 to 200° C. at 5° C./min^-1; injector at 200° C.; thermal conductivity detector at 220° C. and 140 mA; propane quench gas at 10-15 ml/min^-1. The relative peak area corresponding to each biosynthetic product was converted to dpm as a fraction of the total radioactivity determined by liquid scintillation counting prior to concentration. The absolute amount of each component formed was then calculated based on the specific activity of the corresponding radiolabeled substrate.

Chain of E. coli IP kinase (ychB, SEQ ID NO:6), partially purified (P62615 whole entry): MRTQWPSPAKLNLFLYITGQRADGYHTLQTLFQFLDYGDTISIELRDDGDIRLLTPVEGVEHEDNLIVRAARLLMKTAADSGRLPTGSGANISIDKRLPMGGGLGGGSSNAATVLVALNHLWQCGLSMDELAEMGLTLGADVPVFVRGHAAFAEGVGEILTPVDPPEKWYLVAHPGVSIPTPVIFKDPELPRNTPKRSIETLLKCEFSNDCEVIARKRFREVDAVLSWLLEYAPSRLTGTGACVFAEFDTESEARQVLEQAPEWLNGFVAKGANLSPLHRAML
Chain of E. coli IP kinase (ychB, SEQ ID NO:6) (P62615 whole entry): as above

Question: How did the “Cofactor / phosphate donor requirement of kinase activity” value (“Cofactor / phosphate donor requirement” for short) [1] turn out when `Nc1ncnc2c1ncn2[C@@H]1O[C@H](COP(=O)(O)OP(=O)(O)OP(=O)(O)O)[C@@H](O)[C@H]1O` [ATP] was run?
Answer: dependent upon the presence

Question: `Nc1ccn([C@@H]2O[C@H](COP(=O)(O)OP(=O)(O)OP(=O)(O)O)[C@@H](O)[C@H]2O)c(=O)n1` [CTP] was tested. Which “Cofactor / phosphate donor requirement” value [1] did it give?
Answer: did not serve as alternate phosphate donors

Question: For `CC(C)=CCO` [DMA, dimethylallyl alcohol], which “Kinase activity with substrate, recombinant peppermint kinase” value [2] is on record?
Answer: ≤ 0.01 pmol (s g protein)^-1

Question: What about the “Rate (kinase activity with substrate), E. coli (repressed)” value [3] of the same molecule?
Answer: < 0.01 pmol/s · g protein

Question: What about the “Rate (kinase activity with substrate), E. coli (induced)” value [4] of the same molecule?
Answer: < 0.01 pmol/s · g protein

Question: And the “Rate (kinase activity with substrate), E. coli (partially purified)” value ([1]; Ni2+ affinity-purified enzyme, averages with standard deviation)?
Answer: 11 ± 5 pmol/s · g protein

Question: And the “Phosphorylating activity with substrate, in words, partially purified E. coli kinase” value [1]?
Answer: readily catalyzed the conversion

Question: And the “Total Terpenoids (C10 + C15), rate of incorporation into total monoterpenoids and sesquiterpenoids” value (“Total Terpenoids (C10 + C15), rate” for short) [5]?
Answer: negligible

Question: `CC(C)=CCOP(=O)(O)O` [DMAP, dimethylallyl monophosphate] was tested. Which “Total Terpenoids (C10 + C15), rate” value [5] did it give?
Answer: 6 pmol (h 10^5 cell clusters)^-1 and < 6 pmol (h 10^5 cell clusters)^-1

Question: Which “Total Terpenoids (C10 + C15), rate” value [5] does the source give for `CC(C)=CCOP(=O)(O)OP(=O)(O)O` [DMAPP, dimethylallyl diphosphate] here?
Answer: 4 pmol (h 10^5 cell clusters)^-1 and < 6 pmol (h 10^5 cell clusters)^-1

Question: With `Nc1nc2c(ncn2[C@@H]2O[C@H](COP(=O)(O)OP(=O)(O)OP(=O)(O)O)[C@@H](O)[C@H]2O)c(=O)[nH]1` [GTP] as the molecule, how does the “Cofactor / phosphate donor requirement” value [1] read?
Answer: did not serve as alternate phosphate donors

Question: For `C=C(C)CCOP(=O)(O)O` [IP, isopentenyl monophosphate], which “Total Terpenoids (C10 + C15), rate” value [5] is on record?
Answer: 43 pmol (h 10^5 cell clusters)^-1

Question: With `C=C(C)CCOP(=O)(O)OP(=O)(O)O` [IPP, isopentenyl diphosphate] as the molecule, how does the “Total Terpenoids (C10 + C15), rate” value [5] read?
Answer: 561 pmol (h 10^5 cell clusters)^-1

Question: With `C=C(C)CCO` [ISO, isopentenol] as the molecule, how does the “Total Terpenoids (C10 + C15), rate” value [5] read?
Answer: 304 pmol (h 10^5 cell clusters)^-1

Question: For `C[C@](O)(CO)[C@H](O)COP(=O)(O)O` [MEP, 2-C-methylerythritol-4-phosphate], which “Kinase activity with substrate, recombinant peppermint kinase” value [2] is on record?
Answer: less than 0.2 pmol (s g protein)^-1

Question: What about the “Rate (kinase activity with substrate), E. coli (repressed)” value [3] of the same molecule?
Answer: < 0.2 pmol/s · g protein

Question: And the “Rate (kinase activity with substrate), E. coli (induced)” value [4]?
Answer: < 0.2 pmol/s · g protein

Question: And the “Phosphorylating activity with substrate, in words, partially purified E. coli kinase” value [1]?
Answer: no phosphorylating activity was detectable

Question: With `[Cl-].[Cl-].[Mg+2]` [MgCl2] as the molecule, how does the “Cofactor / phosphate donor requirement” value [1] read?
Answer: dependent upon the presence

Question: How did the “Cofactor / phosphate donor requirement” value [1] turn out when `O=c1ccn([C@@H]2O[C@H](COP(=O)(O)OP(=O)(O)OP(=O)(O)O)[C@@H](O)[C@H]2O)c(=O)[nH]1` [UTP] was run?
Answer: did not serve as alternate phosphate donors

From US6235514A, “Nucleic acid molecules encoding isopentenyl monophosphate kinase, and methods of use” (Washington State University Research Foundation, priority 1999, dated 2001)
